The values below come from patent US20240277873A1, “ULTRABRIGHT […] PROBES FOR DETECTION AND IMAGING” (Nanyang Technological University, priority 2021, published 2024).

Residues, ends and D or L forms follow the SMILES beside them. *: point of attachment. X1 = COC(=O)/C=C/c1ccc(C2(OC)OOC23C2CC4CC(C2)CC3C4)cc1OCc1ccc(N*)cc1

The conditions of data set [1]: obtained from the literature (ACS Cent. Sci. 2017, 3, 349-358); cited from earlier work.
Data set [2] is described as follows: Half-life and CL emission of uncaged BTPD in PBS. The class given is physicochemical. The following applies: in PBS (10% DMSO) at 37° C. Here is the method: FIG. 13 depicts the half-lives of BTPDSu (20 μM) and BTPD (20 μM) in pure DMSO upon addition of excess O2^•- (100 μM) and in 10 mM PBS (10% DMSO, pH 7.4) at 37° C., respectively.
Another data set relates to LPS-treated mice. In words: Real-time chemiluminescence imaging in LPS-induced peritonitis model. The class given is in vivo. The following applies: LPS-treated mice. Here is the method:
The model was induced by intraperitoneal injection of LPS (15 ng) in 100 μL of PBS or PBS only as a control. Probe BTPDNe (40 μM·Kg^−1) or MPDNe (40 μM·Kg^−1) in PBS (10 mM, pH 7.4) containing 10% DMSO was intraperitoneally injected in mice. Then, chemiluminescent signals at different post-injection timepoints (0, 5, 10, 20, 45 and 60 min) were recorded using IVIS system bioluminescence with acquiring time of 120 s. After 3 h, the peritoneum was flushed with PBS (5 mL)+EDTA (5 mM). After erythrocyte lysis, neutrophils from C57Bl/6 mice were stained with a PE-labeled CD. After treatment with LPS for 3 h, CD11c antibody and an APC-labeled Ly6G antibody were added to the neutrophils, and the neutrophils were analyzed for double-positive events using flow cytometry (BD Biosciences). Data analysis was performed using Flowjo V10. Neutrophils were gated as CD45+CD11b+Ly6G+cells after the exclusion of doublets.
Fluorescence and chemiluminescence in vivo imaging of the probes were measured by an IVIS spectrum imaging system. Chemiluminescence imaging of the cells was recorded on LX71 inverted microscope. Tissue slices were cut by Leica, Germany slicer and imaged by a Nikon ECLIPSE 80i microscope. The images of tissue sections and cells were recorded with a LSM800 confocal laser scanning microscope. The white light was provided by 150 W LED High Bay Thermo Light.

Another data set relates to neutrophils. In words: In vitro cell chemiluminescent imaging. It is filed as cell-based. The following applies: probe 10 μM. The method, then: 3T3 cells and immune cells (neutrophils, DC cells, T-cells and macrophage) (10^4 cells) were seeded into confocal cell culture dishes (dia. 15 mm) and incubated for 24 h. […] After incubation, the medium was removed, and the cells were washed thrice. Chemiluminescence imaging of the cells were recorded on LX71 inverted microscope (Olympus), which was equipped with infinity 3-1 (Lumenera) CCD camera. During imaging, the excitation light was blocked and the images were recorded under an open filter, with an acquisition time of 60 s.

Another data set concerns the target T1, NE (Homo sapiens, UniProt P08246).
T1 sequence (P08246 30-267): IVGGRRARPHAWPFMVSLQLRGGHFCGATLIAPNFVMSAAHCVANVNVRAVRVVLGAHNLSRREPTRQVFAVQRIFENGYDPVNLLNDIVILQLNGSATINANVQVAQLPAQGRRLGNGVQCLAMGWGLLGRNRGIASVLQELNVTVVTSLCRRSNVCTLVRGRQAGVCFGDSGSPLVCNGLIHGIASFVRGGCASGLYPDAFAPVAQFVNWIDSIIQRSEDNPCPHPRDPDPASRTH
Put plainly: Chemiluminescence and fluorescence changes of BTPDNe and MPDNe in the presence of NE (response, selectivity, LOD, half-life). The class given is biochemical. Here is the method:
Chemiluminescence and fluorescence changes of BTPDNe (20 μM) were determined in the presence of NE (0.1 U/ml), other different enzymes (˜0.1 U/mL, APN, ALP, Cas-3, cat B, GGT, β-gal and NTR) in 50 mM Tris, 1 M NaCl, 0.05% (w/v) Brij-35, pH 7.5 at 37° C. after 30 min incubation.
Chemiluminescence and fluorescence changes of BTPDNe and MPDNe (20 μM) in the presence of NE (0.1 U/mL), or other different enzymes (˜0.1 U/mL, APN, ALP, Cas-3, Cat B, GGT, β-gal, NTR, CatG and PR3) were tested after 30 min incubation in 50 mM Tris, 1 M NaCl, 0.05% (w/v) Brij-35, pH 7.5 at 37° C.
To determine the LOD for NE enzyme detection, the chemiluminescence of BTPDNe was recorded in 50 mM Tris, 1 M NaCl, 0.05% (w/v) Brij-35, pH 7.5 at 37° C. with different concentrations of NE (0, 0.05, 0.1, 0.5, 1, and 2 U/ml) for 30 min incubation. Then, initial reaction velocity was calculated.

Data set [3] in a line: Blood test: chemiluminescence after incubation in healthy mouse blood. Particulars: 20 μM, 30 min, 100 μL blood. The method, then: BTPDNe (20 μM) and MPDNe (20 μM) were incubated for 30 min in healthy mouse blood (100 μL), respectively. Chemiluminescence intensities were measured by IVIS system bioluminescence with an acquisition time of 60 s.
The nature of data set [4]: Chemiluminescence kinetic studies (half-lives, CL emission) of caged probes in the presence of O2•-. The class given is physicochemical. Particulars: for CL Emission: caged probe after activation. Here is the method: FIG. […]
[…] The chemiluminescent intensities were plotted as a function of time.
[…] The chemiluminescence signal was recorded by the microplate reader to calculate half-lives of BTPDSu at different pHs.

The nature of data set [5]: Chemiluminescence quantum yield in the presence of O2•-. It is filed as physicochemical. Particulars: probe 20 μM, O2•- 100 μM, PBS (10 mM, pH 7.4, 10% DMSO), 37° C. Here is the method:
The chemiluminescence QYs of BOPDSu, BTPDSu, MBPDSu, and MPDSu (20 μM) were measured in the presence of O2^•- (100 μM) in PBS (10 mM, pH 7.4, 10% DMSO) at 37° C. The fluorescence QYs were determined by using Rhodamine B as a standard dye (QY 36%) in PBS (10 mM, pH 7.4) (X. Zhen et al., ACS Nano 2016, 10, 6400-6409). The fluorescence QY of AMPD was obtained from the literature (O. Green et al., ACS Cent. Sci. 2017, 3, 349-358).

The nature of data set [6]: Stability of BTPDSu at different pHs (UV spectra). Particulars: 20 μM, pH 5-9 buffers with 10% DMSO, 2 h, 37° C. The class given is physicochemical. The method, then: BTPDSu and ABTPD (20 μM) were stored at different pHs (pH 5, 6, 7, 8 and 9) containing 10% DMSO for 2 h. Then, UV spectra of BTPDSu and fluorescence spectra of ABTPD were measured at different pHs.
Data set [7] is described as follows: Chemiluminescence and fluorescence changes of probes toward O2•- (KO2): response, selectivity, LOD. Here is the method: The chemiluminescence and fluorescence changes of BOPDSu, BTPDSu, MBPDSu and MPDSu (20 μM) were recorded at different concentrations of RONS (40 μM) and other metal ions (100 μM). BOPDSu, BTPDSu, MBPDSu and MPDSu (20 μM) in phosphate buffered saline (PBS) buffer were treated in the presence of different RONS (40 μM), and metal ions (Mg^2+, Ca^2+ or Fe^2+, 100 μM) at 37° C.
The chemiluminescence signals were recorded at different concentrations of KO2 (0, 50, 100, 250, 500 and 1000 nM). Then, the limit of detection (LOD) of BOPDSu, BTPDSu, MBPDSu and MPDSu were calculated by chemiluminescence intensities based on the equation: LOD=3σ/k, where σ is the standard deviation of emission intensity of blank, and k is the slope of plot of emission intensities.

On to `COC(=O)/C=C/c1ccc(C(=O)OC)cc1O` [AMPD], for which the “ΦFl, fluorescence QY of activated probe” value in data set [1] was 3.1%.

Turning to `COC1(c2ccc(-c3nc4ccccc4s3)c(O)c2)OOC12C1CC3CC(C1)CC2C3` (centres unmarked) [BTPD], in data set [2], the “CL Emission” value is about 515 nm.

Take `COC(=O)/C=C/c1ccc(C2(OC)OOC23C2CC4CC(C2)CC3C4)cc1OCc1ccc(NC(=O)[C@@H](NC(=O)[C@@H]2CCCN2C(=O)[C@H](C)NC(=O)[C@H](C)NC(C)=O)C(C)C)cc1` (some centres unmarked) [MPDNe, reference compound] (Ac-AAPV-X1): in the data set on LPS-treated mice (60 min post injection), the “chemiluminescent signals after 60 min” value was “not”. The “maximum chemiluminescent signal enhancement in peritoneum relative to negative control group” value in the data set on LPS-treated mice (3 h post LPS, i.p. probe 40 μM·kg^−1) is reported as 8.5 fold. In addition, in the data set with neutrophils (incubation 30 min), the “activated chemiluminescence signal in neutrophils, 30 min” value worked out at 56.4 pixels. Moreover, the “activated chemiluminescence signal in neutrophils, 1 h” value in the data set on neutrophils (incubation 1 h) is reported as 16.2 pixels. Moreover, the “selectivity towards NE over other enzymes” value on NE (APN, ALP, Cas-3, cat B, GGT, furin, β-gal, NTR, PR3, CatG (~0.1 U/mL)) was “high selectivity”. Besides, the “chemiluminescence enhancement after incubation with NE” value on NE (probe 20 μM, NE 0.1 U/mL, 50 mM Tris, 1 M NaCl, 0.05% Brij-35, pH 7.5, 37° C., 30 min, BTPDNe at 515 nm, MPDNe at 550 nm) was 65.1 fold. The “chemiluminescence intensities after incubation with healthy mouse blood” value in data set [3] was “Negligible”.

“benzothiazole-phenoxyl-dioxetane [BTPDSu]”: in data set [4] (BTPDSu 100 μM, O2•- 4 eq., PBS (10 mM, pH 7.4, 10% DMSO), 37° C.), the “chemiluminescence signal after 4 h incubation with O2•-” value is “still observable by naked eye”. Besides, the results for the “CL Emission” value in data set [4] (in PBS (10% DMSO) at 37° C.) and in data set [4] (in pure DMSO) were 520 nm and 485 nm, respectively. Moreover, the “ΦCl, chemiluminescence QY” value in [5] was 0.137 einsteins/mol. The “stability: UV spectra at different pHs” value in data set [6] is listed as “no obvious changes”. Moreover, the “LOD against O2•-” value in data set [7] (KO2 0-1000 nM, PBS (10 mM, pH 7.4, 10% DMSO), 37° C., LOD=3σ/k) came to 6.8 nM. In addition, the “chemiluminescence intensity increase after addition of O2•-” value in data set [7] (probe 20 μM, O2•- 40 μM for 10 s, PBS pH 7.4, 37° C., at 480 / 520 / 580 / 540 nm) turned out to be 2960 times. Moreover, the “fluorescent signal enhancement upon cleavage by O2•-” value in [7] (probe 20 μM, PBS (10 mM, pH 7.4, 10% DMSO), 37° C., at ~486 / 532 / 582 / 542 nm) is recorded as 42.1 folds.
